In US20220125051A1, “PRE-HARVEST DESICCATION METHOD” (SYNGENTA CROP PROTECTION AG, priority 2019, published 2022):

What was measured:
Assay in all cases: Post-emergence efficacy, Method A
Format in all cases: in vivo
Lolium perenne (LOLPE) = conditions: Application rate 500 g/Ha, evaluated after 13 days, 100=total damage to plant, 0=no damage to plant; for pest or weed control at 500 g/ha: Lolium perenne, post-emergence, 312 h, read-out: Control of weed species after post-emergence application, LOLPE
Experimental: (§1) Seeds of a variety of test species were sown in standard soil in pots. After cultivation for 14 days (post-emergence) under controlled conditions in a glasshouse (at 24/16° C., day/night; 14 hours light; 65% humidity), the plants were sprayed with an aqueous spray solution derived from the dissolution of the technical active ingredient formula (I) in a small amount of acetone and a special solvent and emulsifier mixture referred to as IF50 (11.12% Emulsogen EL360 TM+44.44% N-methylpyrrolidone+44.44% Dowanol DPM glycol ether), to create a 50 g/I solution which was then diluted to required concentration using 0.25% or 1% Empicol ESC70 (Sodium lauryl ether sulphate)+1% ammonium sulphate as diluent. The test plants were then grown in a glasshouse under controlled conditions (at 24/16° C., day/night; 14 hours light; 65% humidity) and watered twice daily. After 13 days the test was evaluated (100=total damage to plant; 0=no damage to plant).
(§2) Ipomoea hederacea (IPOHE), Euphorbia heterophylla (EPHHL), Chenopodium album (CHEAL), Amaranthus palmeri (AMAPA), Lolium perenne (LOLPE), Digitaria sanguinalis (DIGSA), Eleusine indica (ELEIN), Echinochloa crus-galli (ECHCG), Setaria faberi (SETFA)

Eleusine indica (ELEIN) = conditions: Application rate 500 g/Ha, evaluated after 13 days, 100=total damage to plant, 0=no damage to plant; for pest or weed control at 500 g/ha: Eleusine indica, post-emergence, 312 h, read-out: Control of weed species after post-emergence application, ELEIN
Experimental: as §1, §2

[1] = system: Echinochloa crus-galli (ECHCG); conditions: Application rate 500 g/Ha, evaluated after 13 days, 100=total damage to plant, 0=no damage to plant; for pest or weed control at 500 g/ha: Echinochloa crus-galli, post-emergence, 312 h, read-out: Control of weed species after post-emergence application, ECHCG
Experimental: as §1, §2

[2] = system: Chenopodium album (CHEAL); conditions: Application rate 500 g/Ha, evaluated after 13 days, 100=total damage to plant, 0=no damage to plant; for pest or weed control at 500 g/ha: Chenopodium album, post-emergence, 312 h, read-out: Control of weed species after post-emergence application, CHEAL
Experimental: as §1, §2

Setaria faberi (SETFA) = conditions: Application rate 500 g/Ha, evaluated after 13 days, 100=total damage to plant, 0=no damage to plant; for pest or weed control at 500 g/ha: Setaria faberi, post-emergence, 312 h, read-out: Control of weed species after post-emergence application, SETFA
Experimental: as §1, §2

[3] = system: Amaranthus palmeri (AMAPA); conditions: Application rate 500 g/Ha, evaluated after 13 days, 100=total damage to plant, 0=no damage to plant; for pest or weed control at 500 g/ha: Amaranthus palmeri, post-emergence, 312 h, read-out: Control of weed species after post-emergence application, AMAPA
Experimental: as §1, §2

[4] = system: Digitaria sanguinalis (DIGSA); conditions: Application rate 500 g/Ha, evaluated after 13 days, 100=total damage to plant, 0=no damage to plant; for pest or weed control at 500 g/ha: Digitaria sanguinalis, post-emergence, 312 h, read-out: Control of weed species after post-emergence application, DIGSA
Experimental: as §1, §2

[5] = system: Euphorbia heterophylla (EPHHL); conditions: Application rate 500 g/Ha, evaluated after 13 days, 100=total damage to plant, 0=no damage to plant; for pest or weed control at 500 g/ha: Euphorbia heterophylla, post-emergence, 312 h, read-out: Control of weed species after post-emergence application, EPHHL
Experimental: as §1, §2

[6] = system: Ipomoea hederacea (IPOHE); conditions: Application rate 500 g/Ha, evaluated after 13 days, 100=total damage to plant, 0=no damage to plant; for pest or weed control at 500 g/ha: Ipomoea hederacea, post-emergence, 312 h, read-out: Control of weed species after post-emergence application, IPOHE
Experimental: as §1, §2

| Compound | pest or weed control at 500 g/ha (Lolium perenne (LOLPE)) [%] | pest or weed control at 500 g/ha (Eleusine indica (ELEIN)) [%] | pest or weed control at 500 g/ha [1] [%] | pest or weed control at 500 g/ha [2] [%] | pest or weed control at 500 g/ha (Setaria faberi (SETFA)) [%] | pest or weed control at 500 g/ha [3] [%] | pest or weed control at 500 g/ha [4] [%] | pest or weed control at 500 g/ha [5] [%] | pest or weed control at 500 g/ha [6] [%] | Control of weed species after post-emergence application, LOLPE (Lolium perenne (LOLPE)) | Control of weed species after post-emergence application, ELEIN (Eleusine indica (ELEIN)) | Control of weed species after post-emergence application, ECHCG [1] | Control of weed species after post-emergence application, CHEAL [2] | Control of weed species after post-emergence application, SETFA (Setaria faberi (SETFA)) | Control of weed species after post-emergence application, AMAPA [3] | Control of weed species after post-emergence application, DIGSA [4] | Control of weed species after post-emergence application, EPHHL [5] | Control of weed species after post-emergence application, IPOHE [6] |
| --- | --- | --- | --- | --- | --- | --- | --- | --- | --- | --- | --- | --- | --- | --- | --- | --- | --- | --- |
| CCOP(=O)(CC[n+]1ccc(-c2cnccn2)cn1)OCC [Compound A8] | 0 | 20 | 10 | 10 | 20 | 10 | 20 | 10 | 10 |  |  |  |  |  |  |  |  |  |
| O=S(=O)(O)CCC[n+]1ccc(-c2cnccn2)cn1 [Compound A10] | 90 | 50 | 30 | 100 | 60 | 100 | 60 | 100 | 40 |  |  |  |  |  |  |  |  |  |
| COc1ccnc(-c2cc[n+](CCS(=O)(=O)[O-])nc2)n1 [Compound A13] | 50 | 100 | 50 | 50 | 60 | 100 | 70 | 70 | 50 |  |  |  |  |  |  |  |  |  |
| COc1cnc(-c2cc[n+](CCS(=O)(=O)[O-])nc2)nc1 [Compound A14] | 40 | 90 | 60 | 60 | 60 | 80 | 90 | 20 | 40 |  |  |  |  |  |  |  |  |  |
| CN(C)c1ccnc(-c2cc[n+](CCS(=O)(=O)[O-])nc2)n1 [Compound A16] | 10 | 70 | 60 | 30 | 50 | 60 | 50 | 50 | 40 |  |  |  |  |  |  |  |  |  |
| O=S(=O)([O-])CC[n+]1ccc(-c2ncc(Cl)cn2)cn1 [Compound A17] | 10 | 60 | 40 | 30 | 40 | 100 | 60 | 30 | 30 |  |  |  |  |  |  |  |  |  |
| O=S(=O)([O-])CC[n+]1ccc(-c2ncc(F)cn2)cn1 [Compound A19] | 20 | 60 | 40 | 60 | 60 | 100 | 50 | 60 | 40 |  |  |  |  |  |  |  |  |  |
| Cc1ccnc(-c2cc[n+](CCS(=O)(=O)[O-])nc2)n1 [Compound A21] | 80 | 100 | 60 | 80 | 90 | 100 | 90 | 80 | 40 |  |  |  |  |  |  |  |  |  |
| O=S(=O)([O-])CC[n+]1ccc(-c2ncc(C(F)(F)F)cn2)cn1 [Compound A24] | 60 | 40 | 60 | 70 | 70 | 90 | 40 | 80 | 70 |  |  |  |  |  |  |  |  |  |
| N#Cc1cnc(-c2cc[n+](CCS(=O)(=O)O)nc2)nc1 [Compound A25] |  |  |  |  |  |  |  |  |  | 40 | 50 | 70 | 60 | 60 | 100 | 50 | 40 | 50 |
| Cc1nccc(-c2cc[n+](CCS(=O)(=O)[O-])nc2)n1 [Compound A31] | 60 | 80 | 60 | 100 | 50 | 100 | 90 | 50 | 100 |  |  |  |  |  |  |  |  |  |
| COC(=O)c1cnc(-c2cc[n+](CCS(=O)(=O)[O-])nc2)nc1 [Compound A33] | 50 | 80 | 40 | 80 | 60 | 100 | 60 | 60 | 40 |  |  |  |  |  |  |  |  |  |
| O=S(=O)([O-])CC[n+]1ccc(-c2ncc(C3CC3)cn2)cn1 [Compound A34] | 60 | 90 | 30 | 70 | 70 | 100 | 60 | 70 | 70 |  |  |  |  |  |  |  |  |  |
| Cc1cnc(-c2cc[n+](CCC(=O)O)nc2)nc1 [Compound A36] | 80 | 100 | 90 | 90 | 100 | 100 | 90 | 90 | 30 |  |  |  |  |  |  |  |  |  |
| COc1cnc(-c2cc[n+](CCC(=O)[O-])nc2)nc1 [Compound A38] | 40 | 70 | 30 | 50 | 70 | 100 | 100 | 30 | 20 |  |  |  |  |  |  |  |  |  |
| O=C([O-])CC[n+]1ccc(-c2nccc(C(F)(F)F)n2)cn1 [Compound A39] | 60 | 80 | 30 | 90 | 40 | 100 | 70 | 90 | 0 |  |  |  |  |  |  |  |  |  |
| CC(CC(=O)O)[n+]1ccc(-c2ncccn2)cn1 (stereo not drawn) [Compound A40, 3-(4-pyrimidin-2-ylpyridazin-1-ium-1-yl)butanoic acid 2,2,2-trifluoroacetate] | 90 | 90 | 90 | 70 | 100 | 90 | 90 | 90 | 100 |  |  |  |  |  |  |  |  |  |
